From patent US20250171417A1, “HETEROCYCLIC DERIVATIVE, AND COMPOSITION AND PHARMACEUTICAL USE THEREOF” (Xizang Haisco Pharmaceutical Co., Ltd., priority 2021, published 2025) come the findings set out here.

Each structure is given as a SMILES string. Where two headings read alike, the source gives them in different places.

Data set [1] has as its target T1, AR splice variant 7 (AR-V7) (Homo sapiens, UniProt P10275).
T1 construct: host or cells: 22RV1 prostate cancer cells
T1 sequence (P10275 1-644 isoform P10275-3): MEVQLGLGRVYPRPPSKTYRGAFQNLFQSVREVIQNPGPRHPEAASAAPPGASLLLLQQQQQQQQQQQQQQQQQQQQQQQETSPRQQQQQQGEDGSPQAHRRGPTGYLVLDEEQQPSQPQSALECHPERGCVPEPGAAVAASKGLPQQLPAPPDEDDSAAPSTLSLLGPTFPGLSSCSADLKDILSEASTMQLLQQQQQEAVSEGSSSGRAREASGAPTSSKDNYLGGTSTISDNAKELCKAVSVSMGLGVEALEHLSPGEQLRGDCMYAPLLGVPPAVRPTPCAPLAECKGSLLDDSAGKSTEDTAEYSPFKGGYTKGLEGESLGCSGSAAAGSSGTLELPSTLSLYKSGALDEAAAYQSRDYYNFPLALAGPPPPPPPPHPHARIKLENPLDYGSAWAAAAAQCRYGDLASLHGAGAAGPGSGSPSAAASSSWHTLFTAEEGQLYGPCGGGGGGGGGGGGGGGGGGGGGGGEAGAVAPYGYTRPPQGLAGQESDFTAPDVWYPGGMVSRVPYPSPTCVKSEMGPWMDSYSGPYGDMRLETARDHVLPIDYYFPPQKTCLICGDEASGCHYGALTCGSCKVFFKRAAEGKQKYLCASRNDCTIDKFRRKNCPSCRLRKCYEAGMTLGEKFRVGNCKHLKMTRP
The data set can be described thus: Degradation experiment on AR splice variant 7 (AR-V7) in 22RV1 cells. The settings on record: 24 h. The class given is cell-based. How it is done: Prostate cancer cells 22RV1 were purchased from ATCC, the cell medium was 1640+10% FBS, and the cells were cultured in an incubator at 37° C. under 5% CO2. On day 1, the cells in an exponential phase were collected. With a 1% css-FBS phenol red-free medium, the cell suspension was adjusted to a corresponding concentration and plated into a 6-well plate at 1 mL/well and 300000 cells/well. The next day, a 1% css-FBS phenol-free medium containing the compound to be tested was added, a 1% css-FBS phenol-free medium containing 0.2% DMSO was added to one well as DMSO vehicle control, and the 6-well plate was cultured in an incubator at 37° C. under 5% CO2. After 24 h, the cells were digested with pancreatin and collected into a 1.5 mL centrifuge tube. 15 μL of RIPA lysate (containing 1× protease inhibitor cocktail) was added to each well, and the cells were lysed on ice for 15 min and then centrifuged at 12000 g at 4° C.′ for 10 min. The supernatant protein samples were collected, and protein quantification was performed by a BCA method. AR-V7 was detected using fully automatic protein expression quantitative analysis, which involved diluting the protein to be tested to 2 mg/mL, 4 μL of the diluted protein samples were added to 1 μL of 5× Master Mix (provided in the kit), and the prepared samples were denatured at 95° C. for 5 min and placed on ice for use. The primary antibodies. AR V7 (CST, 19672S) and β-actin (CST, 3700), were diluted with Antibody Diluent II (provided in the kit) at a dilution ratio of 1:10 and 1:500, respectively. The secondary antibody was a mixed goat anti-mouse and goat anti-rabbit secondary antibody in a ratio of 1:1, and the color development solution was a mixed solution of Lumino-S and Peroxide in a ratio of 1:1. The prepared reagents were successively added to an assay plate according to instructions of the kit and detected on an instrument. Western blot band processing was performed using “Compass for SW”, a fully automatic protein expression quantitative analysis software, in which western blot bands were automatically simulated based on signal values. The degradation rate of AR-V7 (4) relative to vehicle control at different compound concentrations was calculated according to formula (4), wherein AR-V7compound was the relative peak area of AR-V7 in the treated group, and AR-V7solvent was the relative peak area of AR-V7 in the vehicle control group.
DC50 calculation: the compound concentration DC50 values at which the degradation rate of AR-V7 was 50% were calculated using Graphpad software and analyzed using log (inhibitor) vs. response-Variable slope (four parameters) function according to formula (4).

The subject of data set [2] is Prostate cancer cells 22RV1. The data set can be described thus: Experiment on inhibiting 22RV1 cell proliferation (CellTiter-Glo, 7 days). In kind it is cell-based. The settings on record: Homo sapiens, 168 h, 22RV1 cells, 7 days incubation, read-out: IC50 values for inhibition of 22RVI cells. Summed up:
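22RV1 cells at 2000/well in 1% charcoal-stripped-FBS phenol red-free medium, treated next day with compound for 7 days at 37 °C, 5% CO2. Viability by CellTiter-Glo luminescence; inhibition relative to DMSO vehicle, IC50 from dose-response fit.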

A short description of data set [3]: Pharmacokinetic test in rats. In kind it is in vivo. The settings on record: rat, plasma, po, male SD rats; for bioavailability: i.g. 5 mg/kg vs intravenous 2 mg/kg; for AUC(0-t): i.g. 5 mg/kg. How it is done:
Test objective: In this experiment, a single dose of each test compound was administered to SD rats intravenously and intragastrically, and the concentrations of the test compounds in plasma of rats were measured to evaluate the pharmacokinetic characteristics of the test compounds in rats.
Experimental animals: male SD rats, 200-250 g, 6-8 weeks old, 6 rats/compound, purchased from Chengdu Ddossy Experimental Animals Co., Ltd.
Experimental method: on the day of the test, 6 SD rats were randomly grouped according to their body weight; the animals were fasted with water available for 12 to 14 hours one day before the administration of a test compound, and were fed 4 hours after the administration.
Sampling: Before and after the administration, 0.1 mL of blood samples were drawn from the orbits of the animals under isoflurane anesthesia, and placed in an EDTAK2 centrifuge tube. Centrifugation was carried out at 5000 rpm at 4° C. for 10 min, and the plasma was collected.
Time points for plasma collection in IV&PO group: 0, 5 min, 15 min, 30 min, 1 h, 2 h, 4 h, 6 h, 8 h, and 24 h.
Before analysis and detection, all samples were stored at −60° C. The samples were analyzed quantitatively by LC-MS/MS.

The mark [4] stands for this setting: cells with nM printed beside the value.

The term DC50 denotes the concentration giving 50% degradation. The low end stands for degradation at low concentration, the high end for degradation only at high concentration. In general, IC50 refers to the concentration that gives 50% inhibition. For orientation: bioavailability means dose-corrected exposure relative to a reference, in per cent. Higher therefore signals much systemic uptake. In general, AUC(0-t) refers to the area under the concentration-time curve up to a stated or last time point. The low end stands for less exposure, the high end for more exposure. `CC(C)(C(=O)Nc1ccc(C(F)(F)F)cc1Cl)n1cc(C#CC2CN(c3cc4c(cc3F)C(=O)N(C3CCC(=O)NC3=O)C4=O)C2)cn1` (stereo not shown) [Compound 15]: in data set [1], the DC50 is under 500 nM. Besides, in data set [2] (setting [4]), the IC50 was under 100 nM. For the same molecule, in data set [3], the bioavailability stood at 73.2 ± 10% and the AUC(0-t) is 10200 ± 1460 ng·h/mL.

Consider `CC(C)(C(=O)Nc1ccc(C#N)c2c1CCCC2)n1cc(C#CC2CN(c3ccc4c(c3)C(=O)N(C3CCC(=O)NC3=O)C4=O)C2)cn1` (stereo not shown) [Compound 56, N-(4-cyano-5,6,7,8-tetrahydronaphthalen-1-yl)-2-(4-((1-(2-(2,6-dioxopiperidin-3-yl)-1,3-dioxoisoindolin-5-yl)azetidin-3-yl)ethynyl)-1H-pyrazol-1-yl)-2-methylpropanamide], for which the DC50 in data set [1] is under 500 nM. In addition, in data set [2] (setting [4]), the IC50 was under 50 nM.

As to `CC(C)(C(=O)Nc1ccc(C(F)(F)F)cc1-c1nccs1)n1cc(C#CC2CN(c3ccc4c(c3)C(=O)N(C3CCC(=O)NC3=O)C4=O)C2)cn1` (stereo not shown) [Compound 155, 2-(4-((1-(2-(2,6-dioxopiperidin-3-yl)-1,3-dioxoisoindolin-5-yl)azetidin-3-yl)ethynyl)-1H-pyrazol-1-yl)-2-methyl-N-(2-(thiazol-2-yl)-4-(trifluoromethyl)phenyl) propanamide], the DC50 in data set [1] is under 500 nM. In addition, the IC50 in data set [2] (setting [4]) was under 50 nM. In data set [3], this molecule returned a bioavailability of 37.9 ± 2.2% and an AUC(0-t) of 12000 ± 711 ng·h/mL.

`CC(C)(C(=O)Nc1ccc(C(F)(F)F)cc1Cl)n1cc(C#CC2CN(c3ccc4c(c3)C(=O)N(C3CCC(=O)NC3=O)C4=O)C2)cn1` (stereo not shown) [Compound 11, N-(2-chloro-4-(trifluoromethyl)phenyl)-2-(4-((1-(2-(2,6-dioxopiperidin-3-yl)-1,3-dioxoisoindolin-5-yl)azetidin-3-yl)ethynyl)-1H-pyrazol-1-yl)-2-methylpropanamide] showed a DC50 in data set [1] of under 500 nM. In data set [2] (setting [4]), the IC50 was under 50 nM. For the same molecule, in data set [3], the bioavailability worked out at 90.9 ± 2.4% and the AUC(0-t) is 16000 ± 431 ng·h/mL.

Consider `CC(C)(C(=O)Nc1ccc(C#N)c2ccccc12)n1cc(C#CC2CN(c3ccc4c(c3)C(=O)N(C3CCC(=O)NC3=O)C4=O)C2)cn1` (stereo not shown) [Compound 21, N-(4-cyanonaphthalen-1-yl)-2-(4-((1-(2-(2,6-dioxopiperidin-3-yl)-1,3-dioxoisoindolin-5-yl)azetidin-3-yl)ethynyl)-1H-pyrazol-1-yl)-2-methylpropanamide], for which, in data set [1], the DC50 was under 500 nM. Further, the IC50 in data set [2] (setting [4]) was under 50 nM. In data set [3], this molecule yielded a bioavailability of 69.1 ± 12% and an exposure AUC(0-t) of 15200 ± 2610 ng·h/mL.

The molecule `O=C1CCC(N2C(=O)c3ccc(N4CC(C#Cc5cnn(C6(C(=O)Nc7ccc(C(F)(F)F)cc7Cl)CCC6)c5)C4)cc3C2=O)C(=O)N1` (stereo not shown) [Compound 14, N-(2-chloro-4-(trifluoromethyl)phenyl)-1-(4-((1-(2-(2,6-dioxopiperidin-3-yl)-1,3-dioxoisoindolin-5-yl)azetidin-3-yl)ethynyl)-1H-pyrazol-1-yl)cyclobutane-1-carboxamide] gave a DC50 in data set [1] of under 500 nM. Also, in data set [2] (setting [4]), the half-maximal inhibitory concentration (IC50) is under 50 nM.

Consider `CC(C)(C(=O)Nc1ccc(C#N)c(C2CC2)c1)n1cc(C#CC2CN(c3ccc4c(c3)C(=O)N(C3CCC(=O)NC3=O)C4=O)C2)cn1` (stereo not shown) [Compound 29, N-(4-cyano-3-cyclopropylphenyl)-2-(4-((1-(2-(2,6-dioxopiperidin-3-yl)-1,3-dioxoisoindolin-5-yl)azetidin-3-yl)ethynyl)-1H-pyrazol-1-yl)-2-methylpropanamide], for which the DC50 in data set [1] was under 500 nM. Also, the IC50 in data set [2] (setting [4]) was under 100 nM. The molecule further gave an AUC(0-t) in data set [3] of 48700 ± 7060 ng·h/mL.

As to `CC(C)(C(=O)Nc1ccc(C(F)(F)F)cc1Br)n1cc(C#CC2CN(c3ccc4c(c3)C(=O)N(C3CCC(=O)NC3=O)C4=O)C2)cn1` (stereo not shown) [Compound 28, N-(2-bromo-4-(trifluoromethyl)phenyl)-2-(4-((1-(2-(2,6-dioxopiperidin-3-yl)-1,3-dioxoisoindolin-5-yl)azetidin-3-yl)ethynyl)-1H-pyrazol-1-yl)-2-methylpropanamide], in data set [1], the DC50 is under 500 nM. The IC50 in data set [2] (setting [4]) was under 50 nM.

With `Cc1nn(C2(C(=O)Nc3ccc(C(F)(F)F)cc3Cl)CCC2)cc1C#CC1CN(c2ccc3c(c2)C(=O)N(C2CCC(=O)NC2=O)C3=O)C1` (stereo not shown) [Compound 164, N-(2-chloro-4-(trifluoromethyl)phenyl)-1-(4-((1-(2-(2,6-dioxopiperidin-3-yl)-1,3-dioxoisoindolin-5-yl)azetidin-3-yl)ethynyl)-3-methyl-1H-pyrazol-1-yl)cyclobutane-1-carboxamide], the DC50 in data set [1] is under 500 nM. Also, the IC50 in data set [2] (setting [4]) is under 50 nM.

In data set [1], `N#Cc1nn(C2(C(=O)Nc3ccc(C(F)(F)F)cc3Cl)CCC2)cc1C#CC1CN(c2ccc3c(c2)C(=O)N(C2CCC(=O)NC2=O)C3=O)C1` (stereo not shown) [Compound 160, N-(2-chloro-4-(trifluoromethyl)phenyl)-1-(3-cyano-4-((1-(2-(2,6-dioxopiperidin-3-yl)-1,3-dioxoisoindolin-5-yl)azetidin-3-yl)ethynyl)-1H-pyrazol-1-yl)cyclobutane-1-carboxamide] registered a DC50 of under 500 nM. Moreover, the IC50 in data set [2] (setting [4]) was under 50 nM.

In data set [1], `CC(C)(C(=O)Nc1ccc(C#N)cc1C1CC1)n1cc(C#CC2CN(c3ccc4c(c3)C(=O)N(C3CCC(=O)NC3=O)C4=O)C2)cn1` (stereo not shown) [Compound 39, N-(4-cyano-2-cyclopropylphenyl)-2-(4-((1-(2-(2,6-dioxopiperidin-3-yl)-1,3-dioxoisoindolin-5-yl)azetidin-3-yl)ethynyl)-1H-pyrazol-1-yl)-2-methylpropanamide] registered a DC50 of under 500 nM. Also, the IC50 in data set [2] (setting [4]) was under 50 nM.

Regarding `Cc1cc(NC(=O)C(C)(C)n2cc(C#CC3CN(c4ccc5c(c4)C(=O)N(C4CCC(=O)NC4=O)C5=O)C3)cn2)ccc1C#N` (stereo not shown) [Compound 13, N-(4-cyano-3-methylphenyl)-2-(4-((1-(2-(2,6-dioxopiperidin-3-yl)-1,3-dioxoisoindolin-5-yl)azetidin-3-yl)ethynyl)-1H-pyrazol-1-yl)-2-methylpropanamide], in data set [2] (cells without a unit of their own (μM)), the IC50 was under 1000 nM. In data set [3], the bioavailability was found to be 77.8 ± 8.5% and the AUC(0-t) came out at 57800 ± 6300 ng·h/mL.
